Assay results taken from PMC12508063, “Chloroindazole based estrogen receptor β ligands with favorable pharmacokinetics promote functional remyelination and visual recovery” (Scientific Reports, 2025).

Assays:
[1] = tested on: Human iPSC-derived OPCs (Tempo's iOligo); test: Differentiation of human iPSC-derived OPCs (Tempo iOligo), MBP; type: cell-based; conditions: human OLs, 10 nM, 18 days
Excerpt: Mouse and Human primary cell cultures: Primary OPC/OL culture were isolated from the cortices of postnatal day 0–1 C57BL/6J mice of both sexes, using established protocols[11],[20],[21]. Mouse OPC and Neuronal Co-cultures: Primary neuronal cultures were established in Neurobasal medium with B27 and plated on poly-L-lysine-coated coverslips. After 12 days, OPCs were isolated, counted, and added to neuronal cultures and media was replaced with neuronal and proliferation media for 3 days, then switched to maturation media that maintained both neurons and OLs. Human iPSC-derived OPCs (Tempo’s iOligo™) were expanded, cryopreserved, and later plated on Matrigel-coated coverslips. After 3 days in growth medium, cells were treated for 3 weeks with T3 containing maturation medium. Differentiation into myelin-producing OLs was assessed using O4 (OL surface marker on pre-OLs) and myelin basic protein (MBP) immunohistochemistry. In all conditions compounds or vehicle were added to culture during differentiation for either 5 days (mouse) or 18 days (human). […]
Tempo’s iOligo (OPC) cells form branched bipolar and tripolar structures when cultured as a monolayer and express OL markers, including O4, NG2, and CNPase. […] After plating human OPCs and allowing two days of growth in expansion media, the culture medium was switched to T3 + maturation medium and evaluated for MBP expression (Fig. 8i). […]

CYP2C9 = CYP2C9 (Homo sapiens, UniProt P11712); test: CYP inhibition; conditions: test compounds at 10 μM; substrate Diclofenac Sodium
EAE mice = test: EAE clinical disease score; type: in vivo, C57BL/6J mouse; conditions: 5 mg/kg/day SC from peak disease
Description: EAE induction and treatment: EAE was induced in 8–10-week-old wild-type C57BL/6J mice using MOG₃₅-₅₅ peptide[11],[14],[23]–[25]. Mice were scored daily using a standard clinical scale (0–5) and tested for their ability to stay on a rotarod. […] At peak disease (18–22 days post-immunization), animals were grouped into EAE+Vehicle, EAE+K102, and EAE+K110.
Fig. 3 Experimental design for treatment effects in EAE. (A) Experimental plan. […] Following emulsion injection, mice were injected with pertussis (PTX). Mice were scored for their clinical EAE score daily. EAE mice (red) show signs of disease starting at days 8–17. At peak disease between the days […], therapeutic treatment started and continued daily until the end of the experiment (D35-45). […] N = 6–8 mice/group. Two-Way unbalanced ANOVA with Dunnett’s multiple comparisons test was performed. […]
EAE induction and treatment: Eight to ten-week-old wild-type C57BL/6J mice were induced with active EAE using MOG35-55 peptide as previously described (1-5). […] Animals were scored daily for clinical EAE scores as follows: 0, unaffected; 1, complete tail limpness; 2, failure to right upon attempt to roll over; 3, partial hind limb paralysis; 4, complete hind limb paralysis; […]. At peak disease 18-22 dpi, mice were scored and separated into 3 groups: EAE+V, EAE+SHK-K102, and EAE+K110. […]

[2] = Plasma protein binding (human)
CYP2C19 = CYP2C19 (Homo sapiens, UniProt P33261); conditions: 10 µM
[3] = hepatocytes

CYP2C9, sequence (P11712 whole entry): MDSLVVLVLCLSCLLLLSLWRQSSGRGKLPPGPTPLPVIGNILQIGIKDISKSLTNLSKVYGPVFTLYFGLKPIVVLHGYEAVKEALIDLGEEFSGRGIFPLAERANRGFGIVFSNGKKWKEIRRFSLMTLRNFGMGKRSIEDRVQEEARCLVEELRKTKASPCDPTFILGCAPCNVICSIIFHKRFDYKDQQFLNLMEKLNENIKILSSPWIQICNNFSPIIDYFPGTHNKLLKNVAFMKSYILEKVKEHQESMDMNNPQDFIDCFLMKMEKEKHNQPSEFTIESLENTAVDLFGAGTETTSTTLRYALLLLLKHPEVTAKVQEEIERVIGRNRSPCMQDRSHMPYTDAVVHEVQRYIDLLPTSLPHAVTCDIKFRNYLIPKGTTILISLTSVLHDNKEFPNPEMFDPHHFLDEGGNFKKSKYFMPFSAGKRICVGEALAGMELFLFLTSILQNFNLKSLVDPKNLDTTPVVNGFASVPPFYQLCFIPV
CYP2C19, sequence (P33261 whole entry): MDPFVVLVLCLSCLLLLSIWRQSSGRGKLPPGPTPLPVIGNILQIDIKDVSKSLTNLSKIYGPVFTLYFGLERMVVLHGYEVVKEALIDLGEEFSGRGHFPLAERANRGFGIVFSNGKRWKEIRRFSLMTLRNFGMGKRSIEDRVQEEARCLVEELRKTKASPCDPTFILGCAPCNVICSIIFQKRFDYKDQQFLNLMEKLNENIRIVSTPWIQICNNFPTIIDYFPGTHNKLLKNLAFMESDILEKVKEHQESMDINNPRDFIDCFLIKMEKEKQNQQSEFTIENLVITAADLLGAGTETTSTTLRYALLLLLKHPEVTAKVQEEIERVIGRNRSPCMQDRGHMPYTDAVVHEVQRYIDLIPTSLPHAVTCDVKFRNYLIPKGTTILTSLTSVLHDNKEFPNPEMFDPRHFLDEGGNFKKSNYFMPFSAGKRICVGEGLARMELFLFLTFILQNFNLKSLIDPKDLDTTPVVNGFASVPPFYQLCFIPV

| Compound | MBP levels vs vehicle control [1] | CYP Inhibition Percentage CYP2C9 (CYP2C9) | EAE clinical disease (EAE mice) | Protein Binding (% Bound) Human [2] | CYP Inhibition Percentage CYP2C19 (CYP2C19) | Hepatocyte Stability (Mouse) t1/2 [3] | Hepatocyte Stability (Mouse) % Remaining (15 min) ([3]; 0.25 h) |
| --- | --- | --- | --- | --- | --- | --- | --- |
| Cc1cc(O)ccc1-n1nc2ccc(O)cc2c1Cl [Compound K102, IndCl-o-Me] | significantly increased | 36.09% | superior attenuation | 97.08% | – | – | – |
| Oc1ccc(-n2nc3ccc(O)cc3c2Cl)c(O)c1 [Compound K110, IndCl-o-OH] | – | – | – | – | 27.89% | 6.15 min | 19.46% |
